Reference: article PMC9693455, “Synthesis of Tetrasubstituted Phosphorus Analogs of Aspartic Acid as Antiproliferative Agents” (Molecules, 2022)

Columns and labels:
[1] = tested on: MRC5 lung fibroblast cells; experiment: Selective toxicity, CCK-8 assay, non-malignant MRC5 lung fibroblasts; assay type: cell-based; conditions: Homo sapiens; non-malignant MRC5 lung fibroblasts, 48 h exposure, CCK-8
Method: (§1) In vitro cytotoxicity of the phosphorated aspartic acid derivatives was evaluated by testing their antiproliferative activities against several human cancer cell lines. Cell counting kit (CCK-8) assay was used for the evaluation of growth inhibition. […] In addition, trisubstituted aminophosphonate 9a (Imine precursor, R^1 = H, R^2 = P(O)(OMe)2) and tetrasubstituted aminophosphonate 18 (R^1 = Me, R^2 = P(O)(OMe)2) are used as templates in order to evaluate the effect of the substituents (Table 1).
(§2) Human epithelial lung carcinoma cells (A549) (ATCC® CCL-185™, ATCC, Manassas, VA, USA) were grown in Kaighn’s Modification of Ham’s F-12 Medium (ATCC® 30-2004™, ATCC, Manassas, VA, USA) and lung fibroblast cells (MRC5) (ATCC® CCL-171™, ATCC, Manassas, VA, USA) were grown in Eagle’s Minimum Essential Medium (EMEM, ATCC® 30-2003™, ATCC, Manassas, VA, USA). Epithelial ovary adenocarcinoma cells (SKOV3) (ATCC® HTB-77™, ATCC, Manassas, VA, USA) were grown in McCoy’s 5A medium (ATCC® 30-2007™, ATCC, Manassas, VA, USA). All of them were supplemented with 10% of fetal bovine serum (FBS) (Sigma-Aldrich, Madrid, Spain) and with 1% of NORMOCIN solution (Thermo Fisher, Waltham, MA, USA). Cells were incubated at 37 °C and 5% CO2 atmosphere, and were split every 3–4 days to maintain monolayer coverage. For the cytotoxicity experiments, the A549 and SKOV3 cells were seeded in 96-well plates at a density of 2.5–3 × 10^3 cells per well and incubated overnight to achieve 70% of confluence at the time of exposition to the cytotoxic compound.
(§3) Cells were exposed to different concentrations of the cytotoxic compounds and were incubated for 48 h. Then, 10 µL of cell counting kit-8 was added into each well for an additional two hours’ incubation at 37 °C. The absorbance of each well was determined by an Automatic Elisa Reader System (Thermo Scientific Multiskan FC Automatic Elisa Reader System, Thermo Scientific, Shanghai, China) at 450 nm wavelength.

[2] = tested on: SKOV3 (human ovarian carcinoma) cells; experiment: In vitro cytotoxicity (antiproliferative activity), CCK-8 assay, SKOV3; assay type: cell-based; conditions: Homo sapiens, SK-OV-3, 48 h exposure, CCK-8
Method: as §1, §2, §3

[3] = tested on: A549 (carcinomic human alveolar basal epithelial) cells; experiment: In vitro cytotoxicity (antiproliferative activity), CCK-8 assay, A549; assay type: cell-based; conditions: Homo sapiens, A549, 48 h, 48 h exposure, CCK-8
Method: as §1, §2, §3

Row | SMILES | IC50 [1] [µM] | melting point [°C] | IC50 [2] [µM] | IC50 [3] [µM]
1 | CCOC(=O)CC(NS(=O)(=O)c1ccc(C)cc1)(c1ccc([N+](=O)[O-])cc1)P(=O)(OC)OC (stereo not shown) [7q, Ethyl 3-(dimethoxyphosphoryl)-3-((4-methylphenyl)sulfonamido)-3-(4-nitrophenyl)propanoate] | > 50 | 129 to 130 | > 50 | 0.67 ± 0.06
2 | CCOC(=O)CC(NS(=O)(=O)c1ccc(C)cc1)(c1ccc(Cl)s1)P(=O)(OC)OC (stereo not shown) [7r, Ethyl 3-(5-chlorothiophen-2-yl)-3-(dimethoxyphosphoryl)-3-((4-methylphenyl)sulfonamido)propanoate] | > 50 | 93 to 94 | 11.8 ± 0.6 | 1.04 ± 0.28
3 | CCOC(=O)CC(NS(=O)(=O)c1ccc(C)cc1)(c1ccc(-c2ccccc2)cc1)P(=O)(OC)OC (stereo not shown) [7s, Ethyl 3-([1,1’-biphenyl]-4-yl)-3-(dimethoxyphosphoryl)-3-((4-methylphenyl)sulfonamido)propanoate] | > 50 | 112 to 113 | 17 ± 1.22 | 1.48 ± 0.4
4 | COP(=O)(OC)C(CC(=O)OCc1ccccc1)(NS(=O)(=O)c1ccc(C)cc1)c1ccccc1 (stereo not shown) [13b, Benzyl 3-(dimethoxyphosphoryl)-3-((4-methylphenyl)sulfonamido)-3-phenylpropanoate] | > 50 | 84 to 85 | > 50 | 5.2 ± 0.16
